Data reported in US20240390432A1, “ENGINEERED VECTORS AND ORGANISMS CONTAINING THE SAME FOR ISOFLAVONE CONVERSION IN THE GUT” (Board of Regents, The University of Texas System, priority 2021, published 2024).

Columns and labels:
[1] = Equol-producing postmenopausal women, purified supplement; cited from earlier work
[2] = Serum Equol levels of mice given soy hydrogel and probiotic via drinking water; type: in vivo; conditions: mouse, oral, positive control: Equol supplemented directly in hydrogel, no Nissle strains
Description: Serum Equol levels of the mice were measured after 1 week of consumption of a low or high soy content supplement (1× or 8× soy loaded hydrogel). […] Two sets of negative controls were provided as reference. […] In addition, a positive control group consumed Equol that was supplement directly in the hydrogel to reveal, as expected, a very high elevation in serum Equol concentration reaching almost 5 μM without the addition of the engineered Nissle P1 and Nissle P2 strains.

ERbeta = ERbeta (Homo sapiens, UniProt Q92731); conditions: unlike products activating ERalpha, androgen, glucocorticoid, progesterone, mineralocorticoid receptors; cited from earlier work
ERbeta, sequence (Q92731 whole entry, species assumed): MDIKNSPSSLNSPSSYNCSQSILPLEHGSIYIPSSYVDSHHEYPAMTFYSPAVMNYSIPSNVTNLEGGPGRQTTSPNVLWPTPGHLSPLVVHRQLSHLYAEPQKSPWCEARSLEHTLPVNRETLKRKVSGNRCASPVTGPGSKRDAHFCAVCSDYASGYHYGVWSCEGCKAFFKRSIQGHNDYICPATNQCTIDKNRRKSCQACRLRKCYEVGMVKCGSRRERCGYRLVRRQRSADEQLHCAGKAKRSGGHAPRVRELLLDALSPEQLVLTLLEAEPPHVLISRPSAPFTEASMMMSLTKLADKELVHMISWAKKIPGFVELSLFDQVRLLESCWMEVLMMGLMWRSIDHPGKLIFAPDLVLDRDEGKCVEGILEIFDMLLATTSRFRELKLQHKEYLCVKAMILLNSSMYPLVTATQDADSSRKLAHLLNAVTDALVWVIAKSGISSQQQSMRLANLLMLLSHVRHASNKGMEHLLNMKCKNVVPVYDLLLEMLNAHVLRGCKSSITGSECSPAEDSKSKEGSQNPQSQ

Row | concentration at 1 week [2] [µM] | Compound | effect on serum LDL-C and C-reactive protein [1] | receptor selectivity (ERbeta)
1 | – | O=c1c(-c2ccc(O)cc2)coc2cc(O)ccc12 [Daidzein] | not seen | –
2 | ~5 | Oc1ccc([C@H]2COc3cc(O)ccc3C2)cc1 [Equol] | – | selective agonist for ERbeta
